Measured values as given in patent US20240057617A1, “COMPOSITIONS AND METHODS FOR MEALYBUG MONITORING AND CONTROL” (The State of Israel, Ministry of Agriculture & Rural …, priority 2019, published 2024).

What was measured:
N. viridis males [1] = test: Petri dish choice bioassay (arrestment of males on impregnated paper disks); type: in vivo, Nipaecoccus viridis; settings: for mean number of males attracted to bait (arrested on paper disk): 10 ng on filter paper disk, 24 males released, counted after 1 h, mean ±SE, n=6
Description: Insects. N. viridis populations were collected from two citrus groves in Israel, in West Negev and the […] areas. These populations were used to establish a colony on sprouted potatoes (Solanum tuberosum) in a rearing room at 25±1° C., 50-60% relative humidity, and under a photoperiod of […]:10D. First stage larval instars were separated to a different cage and emerged adult males were removed manually each day (Levi-Zada et al. 2014). Adult females, 10 days after the last molt, were transferred to clean potato sprouts for further use in experiments. Behavioral Bioassays. The two putative female sex pheromone components and their 1:1 mixture were tested in 14-cm diameter glass Petri dish arenas (Mendel et al. 2012). Four filter paper disks (5-mm diameter, Whatman No. 1) impregnated with 1 μl n-hexane solutions containing 10 ng γ-necrodol (I), 10 ng γ-necrodyl isobutyrate (II), 5 ng of each I+II combined, and solvent only (control) were equally spaced in random order on the periphery of the arena in each test (n=6). Twenty-four males were released in each of the tests at the center of a Petri dish and after 1 h the number of males found on each paper disk was recorded. […] If a significant difference was found then post-hoc pairwise Conover tests with Bonferroni correction for multiple comparisons was performed (same PMCMR package).

N. viridis males [2] = test: Flight bioassay with baited sticky traps in rearing room; type: in vivo, Nipaecoccus viridis; settings: for average males caught on sticky trap: 20 μg in polyethylene vial, 12 days, mean ±SE, N=12; for statistical comparison of male catches per day with control: Kruskal-Wallis P=0.001, Conover's test at α=0.05
Description: Insects. N. viridis populations were collected from two citrus groves in Israel, in West Negev and the Galilee areas. These populations were used to establish a colony on sprouted potatoes (Solanum tuberosum) in a rearing room at 25±1° C., 50-60% relative humidity, and under a photoperiod of 14L:10D. First stage larval instars were separated to a different cage and emerged adult males were removed manually each day (Levi-Zada et al. 2014). Adult females, 10 days after the last molt, were transferred to clean potato sprouts for further use in experiments.
Flight bioassays of males compared the attractiveness of the female produced components in a 3×3 m^2 rearing room in which a colony of mealybugs, in several open plastic containers, was placed on the floor in the center. Traps consisting of white cards (18×10 cm^2) covered with 80% polyisobutene adhesive (Rimifoot, Rimi, Petah Tikva, Israel) were baited with 0.5 ml 5×8 mm ID×OD polyethylene vials (Just Plastic, Norfolk, UK) containing either 20 μg of γ-necrodol (I), γ-necrodyl isobutyrate (II), their mixture (I+II, 20 μg each), each in 200 μl n-hexane solution, or only 200 μl n-hexane control. The baited traps were hung at 1.2 m height, separated by 2.8 m and were rotated in position every day for 12 days. The Kruskal-Wallis rank sum test and post-hoc Conover tests above were used to compare catches on treatments for statistical differences.

CC1=C(C)C(C)(C)C(CO)C1 (stereo not shown) [compound I, 2,2,3,4-tetramethyl-3-cyclopentene-1-methanol]
mean number of males attracted to bait (arrested on paper disk) (N. viridis males [1]): 0.5±0.2 males
average males caught on sticky trap (N. viridis males [2]): 139±41 males per day
statistical comparison of male catches per day with control (N. viridis males [2]): not significantly different

γ-necrodyl isobutyrate [compound II]
mean number of males attracted to bait (arrested on paper disk) (N. viridis males [1]): 3.16±0.7 males
statistical comparison of male arrestment with control (N. viridis males [1]; Kruskal-Wallis, post-hoc Conover tests with Bonferroni correction, all P<0.0001): significantly different from I or control
average males caught on sticky trap (N. viridis males [2]): 654±178 males per day
statistical comparison of male catches per day with control (N. viridis males [2]): significantly more
